Values quoted from earlier work, collected in patent US20120309847A1, “DOSING REGIMENS AND METHODS FOR TREATING OR PREVENTING PROMYELOCYTIC LEUKEMIA” (NBI Pharmaceuticals, Inc., priority 2011, published 2012).

Legend:
APL [1] = conditions: ATRA combined with anthracycline based chemotherapy; cited from earlier work
APL [2] = conditions: enocitabine 100-200 mg/m^2 continuous infusion 7 days combined with daunorubicin i.v. 3 days; cited from earlier work

SMILES	clinical remission, share of patients (APL [1])	long-term disease-free survival (APL [2])
CC1=C(/C=C/C(C)=C/C=C/C(C)=C/C(=O)O)C(C)(C)CCC1 [ATRA, all-trans retinoic acid]	approximately 90%	–
CCCCCCCCCCCCCCCCCCCCCC(=O)Nc1ccn([C@@H]2O[C@H](CO)[C@@H](O)[C@@H]2O)c(=O)n1 [enocitabine]	–	~30%
